Experiments:
Prothrombin = Prothrombin (Homo sapiens, UniProt P00734); assay: Inhibition of thrombin
[1] = Inhibition of trypsin
Plasma = assay: Anticoagulant activity in human plasma assessed as concentration required to double activated partial thromboplastin time; type: functional

Ki (Prothrombin) [nM] | Ki [1] [nM] | Structure (SMILES) | 2aPTT (Plasma) [µM]
50 | > 100000 | Cc1cc(C(=O)NCc2ccccc2-n2cnnn2)cc(C(=O)N(CC(C)C)CC(C)C)c1 | –
34 | > 100000 | COc1ccc(Cl)cc1CCOc1cc(C)cc(C(=O)N(CC(C)C)CC(C)C)c1 | –
1.25 | > 100000 | Cc1cc(C(=O)NCc2cc(Cl)ccc2-n2cnnn2)cc(N(C2CCCC2)S(C)(=O)=O)c1 | 0.75
67 | 302000 | Cc1cc(C(=O)NCc2cc(Cl)ccc2-n2cnnn2)cc(-c2cnccc2N(C)C)c1 | –
0.27 | > 100000 | Cc1cc(C(=O)NCc2cc(Cl)ccc2-n2cnnn2)cc(-c2cnccc2C(C)C)c1 | 1.5
1.6 | 78000 | Cc1cc(OCCc2cc(Cl)ccc2OCC(=O)NC2CCCNC2)cc(C(=O)N(CC(C)C)CC(C)C)c1 (stereo unspecified) | >8.2
3.5 | 2600 | Cc1cc(OCCc2nc[nH]c2C)cc(C(=O)N(CC(C)C)CC(C)C)c1 | 4.1
1.7 | 37000 | Cc1cc(OCCc2ccccc2-n2cnnn2)cc(C(=O)N(CC(C)C)CC(C)C)c1 | 4.4
85 | > 100000 | CC(=O)c1ccncc1-c1cc(C)cc(C(=O)NCc2cc(Cl)ccc2-n2cnnn2)c1 | –
2.9 | 29000 | Cc1cc(OCCc2ccccc2CN)cc(C(=O)N(CC(C)C)CC(C)C)c1 | 3.6
1.8 | 278000 | Cc1cc(C(=O)NCc2cc(Cl)ccc2-n2cnnn2)cc(C2CNCCC2CC(C)C)c1 (stereo unspecified) | 1.42
0.93 | 28000 | Cc1cc(OCCc2cc(Cl)ccc2-n2cncn2)cc(C(=O)N(CC(C)C)CC(C)C)c1 | 7.1
0.68 | 111000 | Cc1cc(C(=O)NCc2cc(Cl)ccc2CN)cc(C(=O)N(CC(C)C)CC(C)C)c1 | 1.6
37 | > 100000 | Cc1cc(OCC(F)(F)c2cc(C)ccn2)cc(C(=O)N(CC(C)C)CC(C)C)c1 | –
0.93 | > 100000 | Cc1cc(C(=O)NCc2cc(Cl)ccc2-n2cnnn2)cc(N(C2CCCCC2)S(C)(=O)=O)c1 | 0.87
7 | > 100000 | Cc1cc(C(=O)NCc2cc(Cl)ccc2-n2cncn2)cc(C(=O)N(CC(C)C)CC(C)C)c1 | 5.3
0.77 | 483000 | Cc1cc(C(=O)NCc2cc(Cl)ccc2-n2cnnn2)cc(-c2c[n+]([O-])ccc2C(C)C)c1 | 0.38
0.27 | 29000 | Cc1cc(C(=O)NCc2cc(Cl)ccc2-n2cnnn2)cc(C(=O)N(CC(C)C)CC(C)C)c1 | 1.2
4.1 | > 100000 | CC(=O)N(c1cc(C)cc(C(=O)NCc2cc(Cl)ccc2-n2cnnn2)c1)C1CCCCC1 | 1.67
9.6 | > 100000 | Cc1cc(NC2CCCCC2)cc(C(=O)NCc2cc(Cl)ccc2-n2cnnn2)c1 | >8.2
0.73 | > 100000 | COC(=O)COc1ccc(Cl)cc1CCOc1cc(C)cc(C(=O)N(CC(C)C)CC(C)C)c1 | >8.2
1.6 | 75000 | Cc1cc(C(=O)NCc2cc(Cl)ccc2-n2cnnn2)cc(N(CCN)C2CCCCC2)c1 | 1.48
